Experimental data published in patent US20240384321A1, “Microfluidic chip and use thereof for continuous monitoring of bacterium intended for motion, growth and morphology detection” (National Health Research Institutes, priority 2023, published 2024).

What was measured:
E. coli GFP [1] = assay: Antibiotic susceptibility testing in the microfluidic chip (fluorescence, MIC determination); format: cell-based, Escherichia coli (ATCC 25922 GFP)
Procedure: Escherichia coli (E. coli) (ATCC 25922 GFP™) was chosen as a model bacterium. Ampicillin and gentamicin were chosen as model antibiotic drugs. The operational parameters were optimized to isolate 0 or 1 bacterium in each chamber. For the determination of minimum inhibitory concentration (MIC), fluorescence intensity of the sample was measured via inverted fluorescence microscope at 2 hours intervals, during 6 hours of incubation in a temperature-controlled chamber at 37° C. The time-dependent morpho-structural variabilities of bacterium were characterized by a software. […] 0.25 μg/ml GM inhibits bulky E. coli GFP growth on agar plates and microfluidic chip. On the contrary, 0.1 μg/ml GM inhibits growth of ˜90% E. coli GFP in the microfluidic chip, and resistant subpopulation continue growing after 4 h. The present invention shed light on breakthrough development in bacterial resistance research and rapid drug testing applications. […]
Step 3, The morpho-structural changes and Dynamic phenotypic analysis of bacterium were evaluated by microscopy methods. […] In this and the following examples, E. coli is monitored during the first 6 hours and after 21 hours of incubation at 37° C. inside a temperature-controlled chamber placed on the microscope-stage. […]

E. coli GFP [2] = assay: Antibiotic susceptibility of bulky bacteria on agar plates (E-test); format: cell-based, Escherichia coli (ATCC 25922 GFP)
Procedure: Escherichia coli (E. coli) (ATCC 25922 GFP™) was chosen as a model bacterium. Ampicillin and gentamicin were chosen as model antibiotic drugs. The operational parameters were optimized to isolate 0 or 1 bacterium in each chamber. For the determination of minimum inhibitory concentration (MIC), fluorescence intensity of the sample was measured via inverted fluorescence microscope at 2 hours intervals, during 6 hours of incubation in a temperature-controlled chamber at 37° C. The time-dependent morpho-structural variabilities of bacterium were characterized by a software. […] 0.25 μg/ml GM inhibits bulky E. coli GFP growth on agar plates and microfluidic chip. On the contrary, 0.1 μg/ml GM inhibits growth of ˜90% E. coli GFP in the microfluidic chip, and resistant subpopulation continue growing after 4 h. The present invention shed light on breakthrough development in bacterial resistance research and rapid drug testing applications.
The multi-parametric motion-analysis incorporating line length, elongation ratio, circularity, line speed, path speed and intensity are found useful for the identification of resistance and susceptibility of E. coli in 4 hours. […] However, resistant subpopulation continues growing after 4 h.

gentamicin [GM]
share of E. coli GFP whose growth is inhibited (E. coli GFP [1]; 0.1 μg/ml GM, resistant subpopulation continues growing after 4 h): ~90%
concentration that inhibits bulky E. coli GFP growth (MIC) (E. coli GFP [1]; bulky bacteria, 37° C., 6 hours incubation): 0.25 µg/mL
concentration that inhibits bulky E. coli GFP growth (MIC) (E. coli GFP [2]): 0.25 µg/mL
